Experimental data reported in patent US7718160B2, “Radiolabeled compounds and liposomes and their method of making and using same” (The Board of Regents of the University of Texas System, priority 2002, dated 2010).
“Also recorded” adds a separate entry of the source.

Columns and labels:
Assay type in all cases: in vivo
[1] = Normal rat biodistribution of ^99mTc-liposomes at 20 hours after intravenous injection
Description: For comparison, biodistributions of the ^99mTc-“SNS/S” complexes used for liposome labeling were also performed.

[2] = Gamma camera images of normal rats after intravenous injection (^99mTc); settings: rat, baseline, 1 hour, 4 hours and 20 hours after intravenous injection
From the text: (H: Heart; S: Spleen; L: Liver; Bo: Bowel; B1: Bladder.)
(H: Heart; S: Spleen; L: Liver; Bo: Bowel.)
From the images, significant differences between ^99mTc-liposome labeled with ^99mTc-“BMEDA” and ^99mTc-“BMEDA” alone were observed. […] From the images, significant differences between ^99mTc-liposome labeled with ^99mTc-“BMEDA+BT” and ^99mTc-“BMEDA+BT” alone were observed.

[3] = Normal rat biodistribution of ^186Re-liposomes at 72 hours after intravenous injection
[4] = Gamma camera images of normal rats after intravenous injection (^186Re); settings: rat, baseline, 1 hour, 4 hours, 24 hours and 72 hours after intravenous injection

With `CCN(CC)CCN(CCS)CC[S][99Tc]1(=[O])[S]CCN(CCN(CC)CC)CC[S]1` [^99mTc-“BMEDA” alone] the “distribution behavior” value [1] was “does not” and the “distribution seen in gamma camera images” value [2] was “fast blood clearance, fast excretion into bowel and urine, and no spleen accumulation”.
For `CCN(CC)CCN(CCS)CC[S][186Re]1(=[O])[S]CCN(CCN(CC)CC)CC[S]1` [^186Re-“BMEDA” Alone], the “% ID/Gram (Average ± Sd), Blood” value ([3]; normal rat) was 0.022 ± 0.001 % ID/Gram, the “% ID/Gram (Average ± Sd), Bowel” value ([3]; normal rat) was 0.34 ± 0.19 % ID/Gram and the “% ID/Gram (Average ± Sd), Brain” value ([3]; normal rat) was 0.0035 ± 0.0007 % ID/Gram. For the same compound, the “% ID/Gram (Average ± Sd), Feces” value ([3]; normal rat) was 4.82 ± 1.53 % ID/Gram, the “% ID/Gram (Average ± Sd), Femur” value ([3]; normal rat) was 0.014 ± 0.000 % ID/Gram and the “% ID/Gram (Average ± Sd), Heart” value ([3]; normal rat) was 0.069 ± 0.007 % ID/Gram. The “% ID/Gram (Average ± Sd), Kidney” value ([3]; normal rat) was 4.49 ± 0.37 % ID/Gram, the “% ID/Gram (Average ± Sd), Liver” value ([3]; normal rat) was 0.54 ± 0.05 % ID/Gram and the “% ID/Gram (Average ± Sd), Lung” value ([3]; normal rat) was 0.23 ± 0.03 % ID/Gram. For the same compound, the “% ID/Gram (Average ± Sd), Muscle” value ([3]; normal rat) was 0.0048 ± 0.0005 % ID/Gram, the “% ID/Gram (Average ± Sd), Skin” value ([3]; normal rat) was 0.029 ± 0.012 % ID/Gram and the “% ID/Gram (Average ± Sd), Spleen” value ([3]; normal rat) was 0.38 ± 0.14 % ID/Gram. The “% ID/Gram (Average ± Sd), Testis” value ([3]; normal rat) was 0.015 ± 0.003 % ID/Gram, the “% ID/Gram (Average ± Sd), Urine” value ([3]; normal rat) was 0.79 ± 0.08 % ID/Gram and the “% ID/Organ (Average ± Sd), Blood” value ([3]; normal rat) was 0.49 ± 0.04 % ID/Organ. For the same compound, the “% ID/Organ (Average ± Sd), Bowel” value ([3]; normal rat) was 6.67 ± 3.31 % ID/Organ, the “% ID/Organ (Average ± Sd), Brain” value ([3]; normal rat) was 0.0052 ± 0.0007 % ID/Organ and the “% ID/Organ (Average ± Sd), Feces” value ([3]; normal rat) was 20.54 ± 4.35 % ID/Organ. For the same compound, the “% ID/Organ (Average ± Sd), Femur” value ([3]; normal rat) was 0.58 ± 0.06 % ID/Organ, the “% ID/Organ (Average ± Sd), Heart” value ([3]; normal rat) was 0.076 ± 0.005 % ID/Organ and the “% ID/Organ (Average ± Sd), Kidney” value ([3]; normal rat) was 10.42 ± 0.93 % ID/Organ. The “% ID/Organ (Average ± Sd), Liver” value ([3]; normal rat) was 5.97 ± 0.35 % ID/Organ, the “% ID/Organ (Average ± Sd), Lung” value ([3]; normal rat) was 0.37 ± 0.06 % ID/Organ and the “% ID/Organ (Average ± Sd), Muscle” value ([3]; normal rat) was 0.79 ± 0.07 % ID/Organ. For the same compound, the “% ID/Organ (Average ± Sd), Skin” value ([3]; normal rat) was 1.48 ± 0.51 % ID/Organ, the “% ID/Organ (Average ± Sd), Spleen” value ([3]; normal rat) was 0.21 ± 0.05 % ID/Organ and the “% ID/Organ (Average ± Sd), Testis” value ([3]; normal rat) was 0.058 ± 0.004 % ID/Organ. The “% ID/Organ (Average ± Sd), Urine” value ([3]; normal rat) was 26.93 ± 4.23 % ID/Organ, the “spleen accumulation” value ([3]; rat) was “did not show the spleen accumulation behavior” and the “distribution seen in gamma camera images” value [4] was “significant excretion from the hepatobiliary system and no apparent spleen accumulation; also recorded: fast blood clearance, fast excretion into bowel and urine, and no spleen accumulation”. For the same compound, the “distribution seen in gamma camera images” value ([4]; listed as 186Re-“BMBDA” alone) was “fast blood clearance, fast excretion into bowel and urine, and no spleen accumulation”.
